From patent publication US7622469B2, “2,4-diamino-1,3,5-triazine derivatives” (Hamari Chemicals, Ltd., priority 2002, dated 2009) come the findings set out here.

In brackets after ≈: the same amount, converted by molar mass.

Common to all, as to experiment: Antibacterial activity test (MIC)
Common to all, as to settings: Mueller-Hinton Broth, 37° C., 20 to 24 hours

Assay [1] has as its system MRSA 97-115. In kind it is cell-based, methicillin-resistant Staphylococcus aureus. The protocol:
(§1) Regarding compounds obtained in respective Working Examples, in order to investigate antibacterial activity, minimal inhibitory concentration (MIC) was determined according to a standard method of Japanese Society of Chemotherapy.
(§2) As a test bacterium, nine kinds of S. aureus 209PJC, MRSA 97-115, MRSA KM 97-53, MRSA KM97-108, VRE 49, E. coli NIHJ JC-2, P. aeruginosa PAO-1, P. aeruginosa No. 12, P. aeruginosa KM97-5 were used and, as a medium, Mueller-Hinton Broth (DIFCO) was used. One platinum loop of a test bacterium was inoculated into 20 ml of a medium, and static culture was carried out at 37° C. for 16 to 20 hours, and then each bacterium species was diluted with a sterilized physiological saline to 10^5/ml, which was used as a test bacterium solution.
(§3) Then, each compound was dissolved in methanol, subjected to ½ stepwise dilution with a medium to prepare a medium for measuring sensitivity, and each 2 ml was dispensed into a test tube. A compound concentration in a medium was adjusted to 100 μg/ml and its 2^n-fold (n=−10 to 1).
(§4) Numerical values in Tables represent MIC expressed in μg/ml unit.

For assay [2], the system named is E. coli NIHJ JC-2. In kind it is cell-based. The protocol: as §1, §2, §3, §4
In assay [3] the test system is P. aeruginosa PAO-1. In kind it is cell-based. The protocol: as §1, §2, §3, §4
Assay [4] concerns S. aureus 209PJC. The format is cell-based. The method, then:
as §1, §2, §3, §4

Turning to `CCCCCCCCCCCCC1N=C(N)N=C(N)N1CCc1ccc(OC)cc1.Cl` (racemic) [15(2)], the “minimal inhibitory concentration (MIC)” value in assay [1] worked out at 1.6 µg/mL; in assay [2] it was 50 µg/mL; in assay [3] it was 50 µg/mL; in assay [4], 0.4 µg/mL.

With `CCCCCCCCCCCCC1N=C(N)NC(NCc2ccc(OC)cc2)=N1.Cl` (racemic) [16(1)], the “minimal inhibitory concentration (MIC)” value in assay [1] was 1.6 µg/mL; in assay [2] it was 25 µg/mL; in assay [3], 50 µg/mL; in assay [4], 0.4 µg/mL.

As to `CCCCCCCCCCCCC1N=C(N)N=C(N)N1Cc1ccc(OC)cc1.Cl` (racemic) [16(2)], the “minimal inhibitory concentration (MIC)” value in assay [1] came to 1.6 µg/mL; in assay [2], 25 µg/mL; in assay [3], 25 µg/mL; in assay [4], 0.4 µg/mL.

For `CCCCCCCCCCC1N=C(N)NC(NCc2ccc(C(F)(F)F)cc2)=N1.Cl` (racemic) [18(1)], the “minimal inhibitory concentration (MIC)” value is 0.8 µg/mL in assay [1], 6.3 µg/mL in assay [2], 25 µg/mL in assay [3] and 0.4 µg/mL in assay [4].

Turning to `CCCCCCCCCCC1N=C(N)N=C(N)N1Cc1ccc(C(F)(F)F)cc1.Cl` (racemic) [18(2)], the “minimal inhibitory concentration (MIC)” value in assay [1] amounted to 1.6 µg/mL; in assay [2] it was 6.3 µg/mL; in assay [3], 12.5 µg/mL; in assay [4] it was 0.8 µg/mL.

Turning to `CCCCCCCCCCCC1N=C(N)N=C(N)N1c1ccc(F)cc1F.Cl` (racemic) [compound 35], the “minimal inhibitory concentration (MIC)” value came to 3.1 µg/mL in assay [1], 25 µg/mL in assay [2], 25 µg/mL in assay [3] and 0.8 µg/mL in assay [4].

Take `CCCCCCCCCCCC1N=C(N)NC(Nc2ccc(F)cc2F)=N1.Cl` (racemic) [compound 36]: the “minimal inhibitory concentration (MIC)” value is 1.6 µg/mL in assay [1], greater than 100 µg/mL in assay [2], greater than 100 µg/mL in assay [3] and 0.8 µg/mL in assay [4].

Regarding `CCCCCCCCCCCCC1N=C(N)NC(NCc2ccccc2)=N1.Cl` (racemic) [compound 44], the “minimal inhibitory concentration (MIC)” value in assay [1] was 0.8 µg/mL; in assay [2] it was 1.6 µg/mL; in assay [3] it was 12.5 µg/mL; in assay [4], 0.2 µg/mL.

`CCCCCCCCCCCC1(C)N=C(N)N=C(N)N1c1ccc(Cl)cc1.Cl` (racemic) [compound 45]: the “minimal inhibitory concentration (MIC)” value in assay [1] is 0.4 µg/mL; in assay [2], greater than 100 µg/mL; in assay [3], greater than 100 µg/mL; in assay [4], 0.4 µg/mL.

`CCCCCCCCCCCC1(C)N=C(N)NC(NCc2ccccc2)=N1.Cl` (racemic) [compound 46]: the “minimal inhibitory concentration (MIC)” value in assay [1] was determined as 0.4 µg/mL; in assay [2] it was 12.5 µg/mL; in assay [3], 25 µg/mL; in assay [4] it was 0.4 µg/mL.

With `CCCCCCCCNC1=NC(C)(C)N=C(NCc2ccc(Cl)c(Cl)c2)N1.Cl` [12(1)], the “minimal inhibitory concentration (MIC)” value in assay [1] stood at 0.8 µg/mL; in assay [2] it was 25 µg/mL; in assay [3], 25 µg/mL; in assay [4] it was 0.4 µg/mL.

Consider `CCCCCCCCNC1=NC(C)(C)N(Cc2ccc(Cl)c(Cl)c2)C(N)=N1.Cl` [12(2)], for which the “minimal inhibitory concentration (MIC)” value was found to be 1.6 µg/mL in assay [1], 50 µg/mL in assay [2], 50 µg/mL in assay [3] and 0.8 µg/mL in assay [4].

With `CCCCCCCCCCNC1=NC(C)(C)N=C(NCc2ccccc2)N1.O=C(O)CC(=O)O` [41(2)], the “minimal inhibitory concentration (MIC)” value stood at 0.8 µg/mL in assay [1], 6.3 µg/mL in assay [2], 12.5 µg/mL in assay [3] and 0.4 µg/mL in assay [4].

For `CCCCCCCCCCNC1=NC(C)(C)N=C(NCc2ccc(OC)cc2)N1.Cl` [Example 1], the “minimal inhibitory concentration (MIC)” value in assay [1] came to 0.4 µg/mL; in assay [2] it was 12.5 µg/mL; in assay [3], 25 µg/mL; in assay [4] it was 0.4 µg/mL.

Consider `CCCCCCCCCCNC1=NC(C)(C)N=C(NCc2ccc(OC)c(OC)c2)N1.Cl` [compound 3], for which the “minimal inhibitory concentration (MIC)” value was 1.6 µg/mL in assay [1], 25 µg/mL in assay [2] and 1.6 µg/mL in assay [4].

As for `CCCCCCCCCNC1=NC(C)(C)N=C(NCCc2ccc(OC)cc2)N1.Cl` [compound 5], the “minimal inhibitory concentration (MIC)” value in assay [1] was found to be 0.9 µg/mL; in assay [4] it was 0.5 µg/mL.

With `CCCCCCCCCCCNC1=NC(C)(C)N=C(NCCc2ccc(OC)cc2)N1.Cl` [compound 6], the “minimal inhibitory concentration (MIC)” value in assay [1] turned out to be 1.8 µg/mL; in assay [2], 57 µg/mL; in assay [3] it was 114 µg/mL; in assay [4] it was 0.9 µg/mL.

For the compound `CCCCCCCCCCNC1=NC(C)(C)N=C(NCc2ccc(O)cc2)N1.Cl` [compound 7], the “minimal inhibitory concentration (MIC)” value in assay [1] was found to be 0.8 µg/mL; in assay [2] it was 12.5 µg/mL; in assay [3] it was 50 µg/mL; in assay [4], 0.2 µg/mL.

`CCCCCCCCNC1=NC(C)(C)N=C(NCc2ccc(O)cc2)N1.Cl` [compound 8]: the “minimal inhibitory concentration (MIC)” value in assay [1] was 3.1 µg/mL; in assay [2], 25 µg/mL; in assay [3], greater than 100 µg/mL; in assay [4], 0.4 µg/mL.

`CCCCCCCCCCCNC1=NC(C)(C)N=C(NCc2ccc(O)cc2)N1.Cl` [compound 9]: the “minimal inhibitory concentration (MIC)” value was 1.6 µg/mL in assay [1], 100 µg/mL in assay [2], greater than 100 µg/mL in assay [3] and 0.4 µg/mL in assay [4].

As for `CCCCCCCCCCNC1=NCN=C(NCCc2ccc(OC)cc2)N1.Cl` [compound 10], the “minimal inhibitory concentration (MIC)” value in assay [1] worked out at 6.4 µg/mL; in assay [3] it was 26 µg/mL; in assay [4], 0.4 µg/mL.

In the case of `CCCCCCCCCCNC1=NC(C)(C)N(c2ccc(OC)cc2)C(N)=N1.Cl` [compound 14], the “minimal inhibitory concentration (MIC)” value in assay [1] turned out to be 3.1 µg/mL; in assay [2], 50 µg/mL; in assay [3], 100 µg/mL; in assay [4], 3.1 µg/mL.

As for `CCCCCCCCC1N=C(N)NC(NCc2ccc(C(F)(F)F)cc2)=N1.Cl` (stereo not shown) [compound 17], the “minimal inhibitory concentration (MIC)” value in assay [1] is 1.6 µg/mL; in assay [2] it was 12.5 µg/mL; in assay [3], 25 µg/mL; in assay [4], 0.8 µg/mL.

Regarding `CCCCCCCCCCCC1N=C(N)NC(NCc2ccc(C(F)(F)F)cc2)=N1.Cl` (stereo not shown) [compound 19], the “minimal inhibitory concentration (MIC)” value turned out to be 3.1 µg/mL in assay [1], 50 µg/mL in assay [2], 100 µg/mL in assay [3] and 0.4 µg/mL in assay [4].

For `CCCCCCCC1N=C(N)N=C(N)N1c1ccc(C(C)(C)C)cc1.Cl` (stereo not shown) [compound 20], the “minimal inhibitory concentration (MIC)” value in assay [1] was 3.1 µg/mL; in assay [2] it was 50 µg/mL; in assay [3] it was 50 µg/mL; in assay [4] it was 3.1 µg/mL.

With `CCCCCCCCC1N=C(N)N=C(N)N1c1ccc(C(C)(C)C)cc1.Cl` (stereo not shown) [compound 21], the “minimal inhibitory concentration (MIC)” value in assay [1] turned out to be 3.1 µg/mL; in assay [2], 25 µg/mL; in assay [3], 50 µg/mL; in assay [4], 1.5 µg/mL.

In the case of `CCCCCCCCCC1N=C(N)NC(Nc2ccc(C(C)(C)C)cc2)=N1.Cl` (stereo not shown) [compound 23], the “minimal inhibitory concentration (MIC)” value in assay [1] was 1.6 µg/mL; in assay [2], greater than 100 µg/mL; in assay [3] it was greater than 100 µg/mL; in assay [4] it was 0.8 µg/mL.

In the case of `CCCCCCCCC1N=C(N)NC(Nc2cc(C(C)(C)C)ccc2OC)=N1` (stereo not shown) [compound 25], the “minimal inhibitory concentration (MIC)” value in assay [1] and in assay [4] was 1.6 µg/mL (≈ 4.13 µM) throughout.

`CC(=O)O.CCCCCCCCCCNC1=NC(C)(C)N=C(NCc2ccccc2)N1` [compound 50]: the “minimal inhibitory concentration (MIC)” value in assay [1] is 0.4 µg/mL; in assay [3] it was 25 µg/mL; in assay [4], 0.4 µg/mL.
